SMILES strings stand for the structures.

This assay deals with T1, mAChR M4 (Homo sapiens, UniProt P08173).
T1 construct: expressed in transfected cells; host or cells: CHO-K1 cells stably transfected with M4 cDNA and chimeric G-protein Gqi5
T1 sequence (P08173 1-479): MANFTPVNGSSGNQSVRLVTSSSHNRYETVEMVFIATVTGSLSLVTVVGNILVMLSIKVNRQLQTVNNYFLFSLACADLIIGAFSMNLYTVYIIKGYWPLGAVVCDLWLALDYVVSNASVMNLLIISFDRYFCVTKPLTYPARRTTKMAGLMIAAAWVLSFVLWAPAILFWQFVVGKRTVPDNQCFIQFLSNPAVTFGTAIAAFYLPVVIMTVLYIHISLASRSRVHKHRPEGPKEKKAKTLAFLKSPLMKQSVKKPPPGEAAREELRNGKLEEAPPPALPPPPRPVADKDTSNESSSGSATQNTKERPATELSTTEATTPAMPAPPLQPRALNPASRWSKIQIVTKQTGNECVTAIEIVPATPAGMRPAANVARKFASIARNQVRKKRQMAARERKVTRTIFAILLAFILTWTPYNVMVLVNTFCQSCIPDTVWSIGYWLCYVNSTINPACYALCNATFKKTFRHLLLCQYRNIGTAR
The experiment in a line: mAChR M4 cell-based functional assay (calcium mobilization, potentiation of EC20 acetylcholine response). Particulars: for Emax at 30 µM: % ACh maximum at 30 μM; for EC50: mAChR M4 cell-based functional assay, >10,000 estimated for low potency compounds without plateau, read-out: EC50.

On to `CCc1ccc(CNC(=O)c2sc3nnc(C)c(C)c3c2N)cc1` [Example B395], for which the maximum response (Emax) at 30 µM was 71% and the EC50 was 47 nM.
In the case of `Cc1nnc2sc(C(=O)NC3CN(C(=O)c4ccccc4F)C3)c(N)c2c1C` [Example B396], the Emax at 30 µM is 70% and the EC50 was 200 nM.
In the case of `COc1ccccc1C(=O)N1CC(NC(=O)c2sc3nnc(C)c(C)c3c2N)C1` [Example B397], the maximal response (Emax) at 30 µM was 64% and the EC50 was 430 nM.
Consider `Cc1nnc2sc(C(=O)N3CC4(CN(C(=O)OCc5ccccc5)C4)C3)c(N)c2c1C` [Example B398], for which the maximal effect (Emax) at 30 µM was determined as 47% and the EC50 was 1000 nM.
For the molecule `COc1ncc(CNC(=O)c2sc3nnc(C)c(C)c3c2N)cn1` [Example B399], the Emax at 30 µM is 62% and the EC50 was 290 nM.
As for `COc1ccc(C(=O)N2CC(NC(=O)c3sc4nnc(C)c(C)c4c3N)C2)cc1` [Example B400], the Emax at 30 µM is 63% and the EC50 is 52 nM.
Taken in the same sequence, the figures for `Cc1nnc2sc(C(=O)N3CC(F)(c4cccc(N=[N+]=[N-])c4)C3)c(N)c2c1C` [Example B401] were 54% and 3100 nM.
The matching figures for `Cc1nnc2sc(C(=O)N3CC4(C3)CN(C(=O)C3CCCC3)C4)c(N)c2c1C` [Example B402]: 46% and 3300 nM.
On to `Cc1nnc2sc(C(=O)NC3CN(C(=O)c4cccc(F)c4)C3)c(N)c2c1C` [Example B403], for which the maximal effect (Emax) at 30 µM came out at 71% and the 50% effective concentration (EC50) was 110 nM.
On to `Cc1nnc2sc(C(=O)N3CC4(CN(C(=O)c5ccccc5)C4)C3)c(N)c2c1C` [Example B404], for which the Emax at 30 µM worked out at 50% and the concentration for a half-maximal effect (EC50) was more than 10000 nM.
For `Cc1nnc2sc(C(=O)N3CC(Sc4ccccc4)C3)c(N)c2c1C` [Example B405], the Emax at 30 µM was determined as 46% and the EC50 was 92 nM.
Taken in the same sequence, the figures for `Cc1nnc2sc(C(=O)N3CC(S(C)(=O)=O)C3)c(N)c2c1C` [Example B406] were 54% and 1700 nM.
Taken in the same sequence, the figures for `Cc1nnc2sc(C(=O)NCc3ccc4c(c3)CN(C(C)C)C4=O)c(N)c2c1C` [Example B407] were 61% and 220 nM.
Turning to `Cc1nnc2sc(C(=O)NC3CN(C(=O)c4c(F)cccc4F)C3)c(N)c2c1C` [Example B408], the Emax at 30 µM came out at 65% and the half-maximal effective concentration (EC50) was 270 nM.
The matching figures for `Cc1nnc2sc(C(=O)NC3CN(C(=O)c4ccc(OC(F)(F)F)cc4)C3)c(N)c2c1C` [Example B409]: 65% and 120 nM.
Take `Cc1nnc2sc(C(=O)NCc3cccc(OC(F)(F)F)c3)c(N)c2c1C` [Example B410]: the maximal effect (Emax) at 30 µM stood at 53% and the EC50 is 200 nM.
The matching figures for `Cc1nnc2sc(C(=O)NCc3ccc(OCF)cc3)c(N)c2c1C` [Example B411]: 82% and 53 nM.
Take `Cc1nnc2sc(C(=O)NCc3ccc(OC(F)F)nc3)c(N)c2c1C` [Example B412]: the Emax at 30 µM was 85% and the EC50 is 67 nM.
Take `Cc1nnc2sc(C(=O)N3CC(S(=O)(=O)c4ccccc4)C3)c(N)c2c1C` [Example B413]: the maximal effect (Emax) at 30 µM was 54% and the EC50 was 350 nM.
Taken in the same sequence, the figures for `Cc1nnc2sc(C(=O)N3CC(Sc4ccc(F)c(F)c4)C3)c(N)c2c1C` [Example B414] were 63% and 340 nM.
As for `Cc1nnc2sc(C(=O)N3CC(S(=O)(=O)c4ccc(F)c(F)c4)C3)c(N)c2c1C` [Example B415], the Emax at 30 µM was determined as 44% and the half-maximal effective concentration (EC50) is 1300 nM.
The matching figures for `COc1ccc(SC2CN(C(=O)c3sc4nnc(C)c(C)c4c3N)C2)cc1` [Example B416]: 61% and 110 nM.
The matching figures for `COc1ccc(S(=O)(=O)C2CN(C(=O)c3sc4nnc(C)c(C)c4c3N)C2)cc1` [Example B417]: 46% and 750 nM.
With `COc1cccc(SC2CN(C(=O)c3sc4nnc(C)c(C)c4c3N)C2)c1` [Example B418], the Emax at 30 µM stood at 56% and the concentration for a half-maximal effect (EC50) was 160 nM.
`Cc1nnc2sc(C(=O)N3CC(Sc4ccc(F)cc4F)C3)c(N)c2c1C` [Example B419]: the Emax at 30 µM came out at 56% and the 50% effective concentration (EC50) was 220 nM.
The matching figures for `Cc1nnc2sc(C(=O)NCc3ccc(C(F)F)nc3)c(N)c2c1C` [Example B420]: 71% and 270 nM.
Taken in the same sequence, the figures for `Cc1nnc2sc(C(=O)NC3CN(C(=O)Oc4ccc(N=[N+]=[N-])cc4)C3)c(N)c2c1C` [Example B421] were 84% and 15 nM.
Taken in the same sequence, the figures for `Cc1nnc2sc(C(=O)NC3CN(c4nc5ccccc5s4)C3)c(N)c2c1C` [Example B422] were 73% and 17 nM.
In the case of `Cc1nnc2sc(C(=O)NC3CN(C(=O)N(C)c4ccccc4)C3)c(N)c2c1C` [Example B423], the maximum response (Emax) at 30 µM came out at 59% and the EC50 was 53 nM.
For the molecule `Cc1nnc2sc(C(=O)NC3CN(C(=O)Oc4cccc(N=[N+]=[N-])c4)C3)c(N)c2c1C` [Example B424], the Emax at 30 µM worked out at 68% and the concentration for a half-maximal effect (EC50) was 7.9 nM.
For the molecule `Cc1nnc2sc(C(=O)NC3CN(c4nc5ccccc5o4)C3)c(N)c2c1C` [Example B425], the maximum response (Emax) at 30 µM amounted to 74% and the concentration giving a half-maximal response (EC50) was 28 nM.
Taken in the same sequence, the figures for `Cc1nnc2sc(C(=O)NC3CN(c4ncc(-c5ccccc5)s4)C3)c(N)c2c1C` [Example B426] were 67% and 440 nM.
For the molecule `Nc1c(C(=O)NCc2ccc(S(=O)(=O)C(F)F)cc2)sc2nnc3c(c12)CCCC3` [Example B427], the maximum response (Emax) at 30 µM came out at 39% and the EC50 was 59 nM.
The matching figures for `Nc1c(C(=O)NCc2ccc(S(=O)(=O)CF)cc2)sc2nnc3c(c12)CCCC3` [Example B428]: 51% and 88 nM.
The matching figures for `Cc1nnc2sc(C(=O)NC3CN(c4ncc(Br)cn4)C3)c(N)c2c1C` [Example B429]: 67% and 23 nM.
The matching figures for `Cc1nnc2sc(C(=O)NC3CN(c4nccs4)C3)c(N)c2c1C` [Example B430]: 58% and 2100 nM.
For `Cc1nnc2sc(C(=O)NCc3ccc(C#N)cc3)c(N)c2c1C` [Example B431], the Emax at 30 µM is 56% and the EC50 is 120 nM.
Take `Cc1nnc2sc(C(=O)N3CC(S(=O)(=O)c4ccc(F)cc4F)C3)c(N)c2c1C` [Example B432]: the maximal effect (Emax) at 30 µM was 40% and the half-maximal effective concentration (EC50) was 820 nM.
Take `COc1cccc(S(=O)(=O)C2CN(C(=O)c3sc4nnc(C)c(C)c4c3N)C2)c1` [Example B433]: the Emax at 30 µM amounted to 34% and the EC50 is 590 nM.
Consider `Cc1nnc2sc(C(=O)N3CC4CN(c5ncccn5)CC4C3)c(N)c2c1C` (stereo not shown) [Example B434], for which the Emax at 30 µM was determined as 48% and the EC50 is 1100 nM.
On to `Cc1nnc2sc(C(=O)NCc3ccc(F)cc3)c(N)c2c1C` [Example B435], for which the Emax at 30 µM was 68% and the EC50 was 180 nM.
Taken in the same sequence, the figures for `Cc1nnc2sc(C(=O)N3CC4CN(c5ccc(C#N)nc5)CC4C3)c(N)c2c1C` (stereo not shown) [Example B436] were 49% and 980 nM.
In the case of `Cc1nnc2sc(C(=O)N3CC4CN(c5cccc(Br)n5)CC4C3)c(N)c2c1C` (stereo not shown) [Example B437], the maximal effect (Emax) at 30 µM stood at 54% and the EC50 was 98 nM.
As to `Cc1nnc2sc(C(=O)N3CC4CN(c5ccc(C#N)cn5)CC4C3)c(N)c2c1C` (stereo not shown) [Example B438], the maximum response (Emax) at 30 µM amounted to 45% and the concentration giving a half-maximal response (EC50) is 170 nM.
The matching figures for `COc1ncc(CNC(=O)c2sc3nnc(C)c(C)c3c2N)cc1F` [Example B439]: 78% and 25 nM.
The matching figures for `Cc1nnc2sc(C(=O)NCc3ccc(F)nc3)c(N)c2c1C` [Example B440]: 80% and 190 nM.
Taken in the same sequence, the figures for `Cc1nnc2sc(C(=O)NCc3ccc(CN4CCOCC4)cc3)c(N)c2c1C` [Example B441] were 79% and 80 nM.
On to `Cc1nnc2sc(C(=O)N3CC4CN(c5cccc(F)n5)CC4C3)c(N)c2c1C` (stereo not shown) [Example B442], for which the Emax at 30 µM came out at 66% and the EC50 was 310 nM.
For the molecule `Cc1nnc2sc(C(=O)NCc3ccc(C(F)(F)F)nc3)c(N)c2c1C` [Example B443], the Emax at 30 µM was 69% and the EC50 is 120 nM.
For `Cc1nnc2sc(C(=O)NCc3ccc(=O)n(C)c3)c(N)c2c1C` [Example B444], the Emax at 30 µM turned out to be 65% and the EC50 is more than 10000 nM.
Taken in the same sequence, the figures for `Cc1nnc2sc(C(=O)N3CCCn4nccc43)c(N)c2c1C` [Example B445] were 31% and more than 10000 nM.
Taken in the same sequence, the figures for `COc1ccc(CNC(=O)c2sc3nnc(C)c(C)c3c2N)cc1Cl` [Example B446] were 59% and 17 nM.
Taken in the same sequence, the figures for `Cc1nnc2sc(C(=O)NCc3ccc(-c4cnn(C)c4)cc3)c(N)c2c1C` [Example B447] were 64% and more than 10000 nM.
